According to patent US10010589B2, “Modified therapeutic agents, stapled peptide lipid conjugates, and compositions thereof” (priority 2013, dated 2018):
Read-outs that look alike come from different tables or passages of the source. *1 amine or outer side, *2 acyl side, *3 side chain or, on linkers, in order; H or OH if unused. Where a SMILES comes first, the peptide text is derived from it. Bridges are numbered along the chain shown (N, C = ends). [ ]: non-standard residue; d: D form. CH2CONH(CH2)4NHCOCH2 = O=C(C[*:1])NCCCCNC(=O)C[*:2]

Tests used:
[1] = target: T1, human Glucagon-like peptide 2 receptor (GLP-2R) (Homo sapiens, UniProt O95838); test: GLP-2R CRE luciferase assay (receptor-mediated cAMP synthesis); type: cell-based
T1 construct: expressed in transfected cells
T1 sequence (O95838 1-553): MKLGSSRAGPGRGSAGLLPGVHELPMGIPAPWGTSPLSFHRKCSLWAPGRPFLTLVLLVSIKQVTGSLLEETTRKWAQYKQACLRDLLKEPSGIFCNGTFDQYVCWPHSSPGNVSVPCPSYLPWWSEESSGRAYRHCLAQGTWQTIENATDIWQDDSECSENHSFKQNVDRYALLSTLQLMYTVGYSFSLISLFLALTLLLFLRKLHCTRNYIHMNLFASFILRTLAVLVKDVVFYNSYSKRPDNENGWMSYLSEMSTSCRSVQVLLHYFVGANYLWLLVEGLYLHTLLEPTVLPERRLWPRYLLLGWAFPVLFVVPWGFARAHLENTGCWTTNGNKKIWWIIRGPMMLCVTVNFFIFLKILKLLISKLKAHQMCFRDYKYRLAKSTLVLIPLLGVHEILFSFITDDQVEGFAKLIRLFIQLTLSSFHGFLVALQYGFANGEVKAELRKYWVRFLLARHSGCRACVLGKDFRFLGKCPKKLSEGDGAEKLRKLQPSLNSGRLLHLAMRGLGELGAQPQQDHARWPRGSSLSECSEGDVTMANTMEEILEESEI
Experimental: (§1) CREB responsive luciferase stable HEK 293 cell line overexpressing human glucagon receptor (GCGR), glucagon-like peptide 1 receptor (GLP-1R), Glucose-dependent insulinotropic polypeptide receptor (GIPR), or Glucagon-like peptide 2 receptor (GLP-2R) was generated as follows.
(§2) HEK293 cells were infected with lent virus encoding firefly luciferase gene under the control of CRE promoter, as described in the manual (Qiagen, Netherlands) and then were selected using 1 μg/mL puromycin (Life technologies, Carlsbad) for 1 week. The survived cells were named as CRE-HEK293, expanded and then transfected with a G418 selective mammalian expression plasmid encoding human GCGR, GLP-1R, GIPR or GLP-2R. In brief, GCGR, GLP-1R, GIPR, or GLP-2R plasmid was transfected into CRE-HEK293 cells using Lipofectamine 2000 and selected with 400 μg/mL geneticin (Life technologies, Carlsbad, Calif.). […]
(§3) HEK293-GCGR-CRE, HEK293-GLP-1R-CRE, HEK293-GIPR-CRE, and HEK293-GLP-2R-CRE cells were seeded in a white 384-well plate at a density of 5,000 cells per well and cultured for 24 hours. […] On the next day, 10 μl of Bright-Glo reagent (Promega, Madison, Wis.) were added into each well and firefly luminescence was determined using an Envision multilabel plate reader (PerkinElmer, Waltham, Mass.). EC50 of each peptide was calculated using GraphPad Prism 6 software (GraphPad, San Diego, Calif.).

[2] = target: T2, human glucagon-like peptide 1 receptor (GLP-1R) (Homo sapiens, UniProt P43220); test: cell-based
T2 construct: expressed in transfected cells
Experimental: (§4) HEK293 cells were infected with lent virus encoding firefly luciferase gene under the control of CRE promoter, as described in the manual (Qiagen, Netherlands) and then were selected using 1 μg/mL puromycin (Life technologies, Carlsbad) for 1 week. The survived cells were named as CRE-HEK293, expanded and then transfected with a G418 selective mammalian expression plasmid encoding human GCGR, GLP-1R, GIPR or GLP-2R. In brief, GCGR, GLP-1R, GIPR, or GLP-2R plasmid was transfected into CRE-HEK293 cells using Lipofectamine 2000 and selected with 400 μg/mL geneticin (Life technologies, Carlsbad, Calif.). Single colony stable cell lines overexpressing both CRE-luciferase and GCGR, GLP-1R, GIPR, or GLP-2R were then established for in vitro activity assays. These four stable cell lines were named as HEK293-GCGR-CRE, HEK293-GLP-1R-CRE, HEK293-GIPR-CRE, and HEK293-GLP-2R-CRE.
Cells were treated with different peptides in a dose dependent manner. On the next day, 10 μl of Bright-Glo reagent (Promega, Madison, Wis.) were added into each well and firefly luminescence was determined using an Envision multilabel plate reader (PerkinElmer, Waltham, Mass.). EC50 of each peptide was calculated using GraphPad Prism 6 software (GraphPad, San Diego, Calif.).

[3] = target: T3, human glucagon receptor (GCGR) (Homo sapiens, UniProt P47871); test: GCGR CRE luciferase assay (receptor-mediated cAMP synthesis); type: cell-based
T3 construct: expressed in transfected cells
Experimental: as §1, §4
HEK293-GCGR-CRE, HEK293-GLP-1R-CRE, HEK293-GIPR-CRE, and HEK293-GLP-2R-CRE cells were seeded in a white 384-well plate at a density of 5,000 cells per well and cultured for 24 hours. Cells were treated with different peptides in a dose dependent manner. On the next day, 10 μl of Bright-Glo reagent (Promega, Madison, Wis.) were added into each well and firefly luminescence was determined using an Envision multilabel plate reader (PerkinElmer, Waltham, Mass.). EC50 of each peptide was calculated using GraphPad Prism 6 software (GraphPad, San Diego, Calif.).

[4] = target: T4, human Glucose-dependent insulinotropic polypeptide receptor (GIPR) (Homo sapiens, UniProt P48546); test: GIPR CRE luciferase assay (receptor-mediated cAMP synthesis); type: cell-based
T4 construct: expressed in transfected cells
T4 sequence (P48546 22-466): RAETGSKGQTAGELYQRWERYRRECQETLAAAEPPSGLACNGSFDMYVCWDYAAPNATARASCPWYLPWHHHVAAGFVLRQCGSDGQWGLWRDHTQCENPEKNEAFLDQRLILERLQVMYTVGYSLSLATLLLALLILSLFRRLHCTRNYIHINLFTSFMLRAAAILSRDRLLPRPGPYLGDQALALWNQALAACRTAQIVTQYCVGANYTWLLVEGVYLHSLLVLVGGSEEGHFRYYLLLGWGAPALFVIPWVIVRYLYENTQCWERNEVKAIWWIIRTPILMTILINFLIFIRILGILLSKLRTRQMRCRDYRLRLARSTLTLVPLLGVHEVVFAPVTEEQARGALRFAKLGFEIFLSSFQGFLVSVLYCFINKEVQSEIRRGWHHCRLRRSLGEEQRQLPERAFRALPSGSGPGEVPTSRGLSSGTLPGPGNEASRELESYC
Experimental: as §1, §2, §3

T2 sequence (P43220 24-463): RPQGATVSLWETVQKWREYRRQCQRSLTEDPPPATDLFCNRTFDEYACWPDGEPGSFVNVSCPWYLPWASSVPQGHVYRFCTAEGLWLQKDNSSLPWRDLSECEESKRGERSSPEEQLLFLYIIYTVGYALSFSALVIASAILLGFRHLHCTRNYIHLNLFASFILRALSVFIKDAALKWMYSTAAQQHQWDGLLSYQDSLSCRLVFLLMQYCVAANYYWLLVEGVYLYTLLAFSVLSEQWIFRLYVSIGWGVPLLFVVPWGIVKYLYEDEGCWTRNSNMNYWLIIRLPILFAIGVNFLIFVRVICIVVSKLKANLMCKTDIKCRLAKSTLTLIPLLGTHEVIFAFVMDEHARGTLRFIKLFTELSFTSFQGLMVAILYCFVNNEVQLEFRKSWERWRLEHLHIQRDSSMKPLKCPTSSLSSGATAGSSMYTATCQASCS
T3 sequence (P47871 26-477): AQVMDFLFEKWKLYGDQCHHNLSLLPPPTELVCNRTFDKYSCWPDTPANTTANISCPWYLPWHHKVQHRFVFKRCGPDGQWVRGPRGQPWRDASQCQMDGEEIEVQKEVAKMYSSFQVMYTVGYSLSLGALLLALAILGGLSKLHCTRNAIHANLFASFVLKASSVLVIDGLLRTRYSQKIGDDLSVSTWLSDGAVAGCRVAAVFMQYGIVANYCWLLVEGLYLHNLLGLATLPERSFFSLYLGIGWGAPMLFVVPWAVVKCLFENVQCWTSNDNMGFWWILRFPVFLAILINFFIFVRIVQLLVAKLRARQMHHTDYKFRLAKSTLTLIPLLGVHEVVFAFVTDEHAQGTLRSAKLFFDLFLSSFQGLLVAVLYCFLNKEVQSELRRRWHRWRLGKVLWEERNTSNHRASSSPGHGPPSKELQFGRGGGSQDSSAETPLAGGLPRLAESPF

Work on `CC[C@H](C)[C@@H]1NC(=O)[C@H](Cc2ccccc2)NC(=O)[C@H](CC(=O)O)NC(=O)[C@H](CCCNC(=N)N)NC(=O)[C@H](C)NC(=O)[C@H](C)NC(=O)[C@H](CC(C)C)NC(=O)[C@@H](NC(=O)[C@H](CC(=O)O)NC(=O)[C@H](CC(C)C)NC(=O)[C@@H](NC(=O)[C@@H](NC(=O)[C@H](CC(N)=O)NC(=O)[C@H](CCSC)NC(=O)[C@H](CCC(=O)O)NC(=O)[C@H](CC(=O)O)NC(=O)[C@H](CO)NC(=O)[C@H](Cc2ccccc2)NC(=O)[C@H](CO)NC(=O)CNC(=O)[C@H](CC(=O)O)NC(=O)CNC(=O)[C@@H](N)Cc2c[nH]cn2)[C@@H](C)O)[C@@H](C)CC)CSCC(=O)NCCCCNC(=O)CSC[C@@H](C(=O)N[C@@H](Cc2c[nH]c3ccccc23)C(=O)N[C@@H](CC(C)C)C(=O)N[C@H](C(=O)N[C@@H](CCC(N)=O)C(=O)N[C@H](C(=O)N[C@@H](CCCCN)C(=O)N[C@H](C(=O)N[C@H](C(=O)N[C@@H](CC(=O)O)C(N)=O)[C@@H](C)O)[C@@H](C)CC)[C@@H](C)O)[C@@H](C)CC)NC1=O` [mTA52] (H-HGDGSFSDEMNTILDCLAARDFICWLIQTKITD-NH2; linker 16-24 via CH2CONH(CH2)4NHCOCH2) yielded an EC50 [1] of 5600 pM.

With `CC[C@H](C)[C@H](NC(=O)[C@H](CC(N)=O)NC(=O)[C@H](CC(N)=O)NC(=O)[C@H](CCCNC(=N)N)NC(=O)[C@H](CC(N)=O)NC(=O)[C@H](CCCNC(=N)N)NC(=O)[C@H](CCCCN)NC(=O)[C@@H](NC(=O)[C@H](CC(N)=O)NC(=O)[C@H](CCSC)NC(=O)[C@H](CC(C)C)NC(=O)[C@H](Cc1c[nH]c2ccccc12)NC(=O)[C@@H]1CSCC(=O)NCCCCNC(=O)CSC[C@H](NC(=O)[C@H](CCC(=O)O)NC(=O)[C@H](CC(=O)O)NC(=O)[C@H](CC(C)C)NC(=O)[C@H](Cc2ccc(O)cc2)NC(=O)[C@H](CCCCN)NC(=O)[C@H](CO)NC(=O)[C@H](Cc2ccc(O)cc2)NC(=O)[C@H](CC(=O)O)NC(=O)[C@H](CO)NC(=O)[C@@H](NC(=O)[C@H](Cc2ccccc2)NC(=O)[C@@H](NC(=O)CNC(=O)[C@H](CCC(=O)O)NC(=O)[C@@H](C)NC(=O)[C@@H](N)Cc2ccc(O)cc2)[C@@H](C)O)[C@@H](C)CC)C(=O)N[C@@H](C)C(=O)N[C@@H](C)C(=O)N[C@@H](CCCCN)C(=O)N[C@@H](CCC(=O)O)C(=O)N[C@@H](Cc2ccccc2)C(=O)N[C@@H]([C@@H](C)CC)C(=O)N1)[C@@H](C)O)C(=O)N[C@@H](C)C(N)=O` [mTA44] (H-Y[dA]EGTFISDYSKYLDECAAKEFICWLMNTKRNRNNIA-NH2; linker 17-24 via CH2CONH(CH2)4NHCOCH2) the EC50 ([2]; HEK293-GLP-1R-CRE cells, luciferase readout, Table 8, read-out: GLP-1R (EC50)) was 9700 pM, the EC50 [3] was 1600 pM and the EC50 ([4]; HEK293-GIPR-CRE cells, luciferase readout, Table 8, read-out: GIP-R (EC50)) was 40 pM.

For `CC[C@H](C)[C@H](NC(=O)[C@H](CO)NC(=O)[C@H](Cc1ccc(O)cc1)NC(=O)[C@H](CC(=O)O)NC(=O)[C@H](CO)NC(=O)[C@@H](NC(=O)[C@H](Cc1ccccc1)NC(=O)[C@@H](NC(=O)CNC(=O)[C@H](CCC(=O)O)NC(=O)[C@@H](C)NC(=O)[C@@H](N)Cc1ccc(O)cc1)[C@@H](C)O)[C@@H](C)O)C(=O)N[C@@H](Cc1ccc(O)cc1)C(=O)N[C@@H](CC(C)C)C(=O)N[C@@H](CC(=O)O)C(=O)N[C@@H](CCCCN)C(=O)N[C@H]1CSCC(=O)NCCCCNC(=O)CSC[C@@H](C(=O)N[C@@H](Cc2c[nH]c3ccccc23)C(=O)N[C@@H](CC(C)C)C(=O)N[C@@H](CC(C)C)C(=O)N[C@@H](C)C(=O)NCC(=O)NCC(=O)N2CCC[C@H]2C(=O)N[C@@H](CO)C(=O)N[C@@H](CO)C(=O)NCC(=O)N[C@@H](C)C(=O)N2CCC[C@H]2C(=O)N2CCC[C@H]2C(=O)N2CCC[C@H]2C(=O)N[C@@H](CO)C(=O)N[C@@H](CCCCN)C(N)=O)NC(=O)[C@H](C(C)C)NC(=O)[C@H](Cc2ccccc2)NC(=O)[C@H](CCC(=O)O)NC(=O)[C@H](CCCCN)NC(=O)[C@H](C)NC(=O)[C@H](C)NC1=O` [mTA40] (H-Y[dA]EGTFTSDYSIYLDKCAAKEFVCWLLAGGPSSGAPPPSK-NH2; linker 17-24 via CH2CONH(CH2)4NHCOCH2), the EC50 [2] was 20 pM and the EC50 [4] was 20 pM.
